From patent publication US20070264355A1, “BINARY COMPOSITIONS AND METHODS FOR STERILIZATION” (Binary, LLC, priority 2005, published 2007)
Where “and” joins values, the source holds several entries; their conditions need not be identical. Equal entries are not always repeated.

Test system: Bacillus subtilis (ATCC 19659) spores
Assay: Microbicidal activity against Bacillus subtilis spores (suspension test, surviving CFU)
Assay type: cell-based
From the text: Each solution was used alone for the individual controls. Organism suspensions were used to achieve a final target concentration of 2-3×10^6 CFU per ml. For the binary system treatments, sodium hypochlorite solution and hydrogen peroxide solution, non-acidified or acidified, were sequentially added to the microorganisms. Acidified hydrogen peroxide solution was obtained by the addition of 1.0% v/v of 0.001 N hydrochloride solution. After each addition, the resulting mixture was allowed to remain in contact with the organisms for a set amount of time at room temperature (about 22° C.), as listed in the Tables 1 and 2. At the end of the treatment time, the mixtures were neutralized with 200 to 500 microliters of thiosulfate solution (2.4%) to quench the activity of sodium hypochlorite and then treated with 100 to 200 microliters of a 1% catalase solution, containing a minimum of 100 units/ul, to quench the hydrogen peroxide activity. If needed, an appropriate volume of sterile saline was added to bring the final volume of reaction mixture to 1.4 ml after neutralization. Serial dilution plate counts were performed from the contents of each vial in sterile saline and inoculated onto TSA for quantitative culture. Plates were then incubated at 37° C. and counts taken at 24 hours.
Suspensions of Bacillus subtilis (ATCC 19659) containing 100% spores, as confirmed by microscopy, were obtained by washing the spun-down cells with 50% ethanol to eliminate the vegetative form. Starting inoculum of approximately 1-3×10^6 CFU was used as in Example 1.
[…] The binary system was neutralized 30 minutes after addition of hydrogen peroxide using 2.4% thiosulfate and 1% catalase as described in Example 1.

[1] = NaOCl 0.07 mM 60 min, inoculum 1120000 CFU
[2] = NaOCl 0.07 mM 60 min, inoculum 1865000 CFU
[3] = NaOCl 0.07 mM 120 min, inoculum 1865000 CFU
[4] = NaOCl 0.7 mM 60 min, inoculum 1500000 CFU
[5] = NaOCl 0.71 mM 60 min, inoculum 1120000 CFU
[6] = NaOCl 0.71 mM 60 min, inoculum 1865000 CFU
[7] = NaOCl 0.71 mM 120 min, inoculum 1865000 CFU
[8] = NaOCl 3.5 mM 60 min, inoculum 1500000 CFU
[9] = NaOCl 7.0 mM 60 min, inoculum 1500000 CFU
[10] = NaOCl 7.05 mM 60 min, inoculum 1120000 CFU
[11] = NaOCl 7.05 mM 60 min, inoculum 1865000 CFU
[12] = NaOCl 7.05 mM 120 min, inoculum 1865000 CFU
[13] = NaOCl 70.53 mM 60 min, inoculum 1865000 CFU
[14] = NaOCl 70.53 mM 120 min, inoculum 1865000 CFU
[15] = NaOCl 705.27 mM 60 min, inoculum 1865000 CFU
[16] = NaOCl 705.27 mM 120 min, inoculum 1865000 CFU

[Na+].[O-]Cl [NaOCl, sodium hypochlorite]
Log 10 (CFU + 1) Survivors [1]: 6.2 | Total Viability (CFU) [1]: 1666000 CFU | Log 10 (CFU + 1) Survivors [2]: 6.3 | Log Reduction [2]: −0.1 | Total Viability (CFU) [2]: 2142000 CFU | Log 10 (CFU + 1) Survivors [3]: 6.3 | Log Reduction [3]: 0.0 | Total Viability (CFU) [3]: 1834000 CFU | Log 10 (CFU + 1) Survivors [4]: 3.5 | Log Reduction [4]: 2.7 and 2.66 | Total Viability (CFU) [4]: 3304 CFU | Log 10 (CFU + 1) Survivors [5]: 3.5 | Total Viability (CFU) [5]: 2898 CFU | Log 10 (CFU + 1) Survivors [6]: 4.2 | Log Reduction [6]: 2.1 | Total Viability (CFU) [6]: 14840 CFU | Log 10 (CFU + 1) Survivors [7]: 3.2 | Log Reduction [7]: 3.1 | Total Viability (CFU) [7]: 1526 CFU | Log 10 (CFU + 1) Survivors [8]: 2.7 | Log Reduction [8]: 3.4 and 3.44 | Total Viability (CFU) [8]: 546 CFU | Log 10 (CFU + 1) Survivors [9]: 1.3 | Log Reduction [9]: 4.9 and 4.87 | Total Viability (CFU) [9]: 20 CFU | Log 10 (CFU + 1) Survivors [10]: 1.3 | Total Viability (CFU) [10]: 17 CFU | Log 10 (CFU + 1) Survivors [11]: 1.6 | Log Reduction [11]: 4.6 | Total Viability (CFU) [11]: 43 CFU | Log 10 (CFU + 1) Survivors [12]: 0.0 | Log Reduction [12]: 6.3 | Total Viability (CFU) [12]: 0 CFU | Log 10 (CFU + 1) Survivors [13]: 0.0 | Log Reduction [13]: 6.3 | Total Viability (CFU) [13]: 0 CFU | Log 10 (CFU + 1) Survivors [14]: 0.0 | Log Reduction [14]: 6.3 | Total Viability (CFU) [14]: 0 CFU | Log 10 (CFU + 1) Survivors [15]: 0.0 | Log Reduction [15]: 6.3 | Total Viability (CFU) [15]: 0 CFU | Log 10 (CFU + 1) Survivors [16]: 0.0 | Log Reduction [16]: 6.3 | Total Viability (CFU) [16]: 0 CFU | microbicidal activity (kill of inoculum) (sodium hypochlorite from 70 mM to 0.07 mM, 60 minutes of exposure, 6.3 log10 CFU inoculum): partial kill
